# Laboratory results from patent publication US7189701B1, “Tetrapeptide stimulating functional activity of neurons pharmacological agent based thereon and method of use thereof” (Sankt-Petersburgskaya Obschestvennaya Organizatsiya …, priority 1999, dated 2007).
# Residues, ends and D or L forms follow the SMILES beside them.
# Legend:
# [1] = system: patients with remote complications of craniocerebral injury; test: Clinical trial in patients with remote complications of craniocerebral injury (proof test, EEG α-index, subjective indices); type: in vivo, human
# Description: The trial was conducted on 35 patients with remote complications of craniocerebral injury. They were divided into 3 groups: a control one (10 patients—standard treatment), a group under study (15 patients—standard treatment+1 μg of L-Ala-L-Glu-L-Asp-L-Pro tetrapeptide intramuscularly, daily for 10 days) and a comparison group (10 patients—standard treatment+Cerebrolysin). Remoteness of the suffered craniocerebral injury in the patients constituted 1 to 10 years. Decompensation of the posttraumatic process occurred in all the patients and was manifested in liquorodynamic disorder, neurocirculatory dystonia, cerebrofocal and psychopathologic syndromes.
# Effect of the treatment with L-Ala-L-Glu-L-Asp-L-Pro tetrapeptide on the patients' attention was assessed by the proof test before and after the treatment. Significant increase in the number of reviewed symbols and decreased number of mistakes was noted, which indicated enhanced attention and raised stability of attention promoted by the tetrapeptide action (Table 5).
# To assess the influence of L-Ala-L-Glu-L-Asp-L-Pro tetrapeptide on the cerebral bioelectric activity, a visual EEG (electroencephalography) test was carried out with its distribution on types and calculation of α-index before and after the treatment. EEG test was selectively performed in the patients from different groups showing most notable signs of disorder.
# Before the treatment patients pathologic (III, IV and V) types of EEG prevailed in all the groups. The III-rd EEG type was characterised by the presence of so-called “non-dominant” curve, alongside with a low amplitude rate (no higher than 30–35 μV), irregular or even absent α-activity. The IV-th EEG type was marked by an extremely emphasised rhythm regularity and blurred zonal differences. The V-th EEG type was represented with an irregular slow activity (amplitude exceeding 35 μV), sharp waves and paroxysmal discharges.
# [2] = system: mice subject to ethanol-induced amnestic impact; test: CRPA in mice subject to ethanol-induced amnestic impact; type: in vivo
# Description: (§1) Nootropic activity of L-Ala-L-Glu-L-Asp-L-Pro tetrapeptide was studied with the application of the conditioned reflex of passive avoidance (CRPA) in the intact animals and under the conditions of amnestic impacts (electroconvulsive treatment and ethanol intoxication).
# (§2) The experiments were carried out on male mice weighing 20 to 24 g. For each animal the period of stay in dark and lighted chamber departments was registered during 2 min. before the training. […] The animals were trained by means of applying an electric pain stimulus in the preferred dark department, which lasted until the animal left this department. L-Ala-L-Glu-L-Asp-L-Pro tetrapeptide was introduced intraperitoneally 60 min. before the training. Testing was performed in 2 and 24 hours after the training. The period the animal stayed in the dark and lighted chamber departments and the number of animals not entering the dark department (“educated” animals) were recorded.
# Ethanol was administered to the mice orally for 13 days in the form of a 10% solution. Training was held twice: on the 14th day of ethanol administration and in 24 hours after the first training. L-Ala-L-Glu-L-Asp-L-Pro tetrapeptide was administered intraperitoneally 30 min. before the training. Testing was performed in 2 and 24 hours after the first and second training sessions.
# white unbred rats = test: Subacute toxicity, 90 days intramuscular; type: in vivo; conditions: intramuscular daily for 90 days, 1 μg/kg, 0.3 mg/kg, 3 mg/kg
# Description: Subacute toxicity of L-Ala-L-Glu-L-Asp-L-Pro (SEQ ID NO:1) tetrapeptide was studied on 60 white unbred rats weighing 150 to 250 g. The experimental animals were administered the preparation intramuscularly once a day, daily for 90 days in doses 1 μg/kg, 0.3 mg/kg, 3 mg/kg in 0.5 ml of saline. The control animals were administered the similar amount of saline.
# Within the entire period of study the animals were under daily supervision. Animals' behaviour, food and water consumption, the state of their hair integument and mucous membranes were registered. The animals were weighed once a week. Prior to and on the 30th, 60th and 90th days of the drug administration, the morphologic composition and properties of the peripheral blood in the animals were examined. Upon the study completion, biochemical and coagulologic blood indices were explored.
# rats = test: Serotonin metabolism in the brain, model of electrically induced pain stress; type: in vivo
# Description: In an hour the content of serotonin and its metabolite, 5-oxyindoleacetic acid, was measured in the parietal and posterior frontal regions of the brain.
# Compensatory in character, the stimulation of serotonin metabolism diminishes the emotional perception of a pain impact, Natural “drawback” of the said mechanism consists in a quick transition to the state of decompensation. In control (untreated stress) the level of serotonin lowered, while that of 5-oxyindoleacetic acid rose (metabolic depletion phase).
# cerebral cortex of rats = test: Intensity of lipid peroxide oxidation reactions and protein peroxidation in the cerebral cortex; type: in vivo; conditions: 1 μg intraperitoneally daily for 5 days
# Description: The intensity of lipid peroxide oxidation (LPO) was assessed by the content of initial LPO products—diene conjugates and end products—Schiff bases. The degree of protein peroxidation was estimated by the content of carbonyl-derived amino acids in proteins after their interaction with 2,4-dinitrophenylhydrazine.
# The study was conducted on 20 white unbred rats. 1 μg of the tetrapeptide was administered to the animals intraperitoneally daily for 5 days.
# Moreover, the tetrapeptide application inhibited protein peroxidation as well as LPO (Table 1).
# [3] = system: mice subject to ECS-induced amnestic impact; test: CRPA in mice subject to ECS-induced amnestic impact; type: in vivo; conditions: testing in 24 hours after the training
# Description: as §1, §2
# Electroconvulsive shock (ECS) was induced in the mice no later than in 10 sec. after the training via corneal electrodes by an electric impulse of 25 mA, which lasted for 0.5 sec. L-Ala-L-Glu-L-Asp-L-Pro tetrapeptide was introduced intraperitoneally 60 min. before the training. Testing was performed in 24 hours after the training.
# [4] = system: patients with vascular dementia; test: Preliminary clinical trial in patients with vascular dementia; type: in vivo, human; conditions: 3 μg intramuscularly once daily for 30 days
# Description: Twelve patients aged 69 to 76 years (7 males and 5 females) suffering from hypertensive disease and atherosclerosis of cerebral vessels for a long time were enrolled in the study. Three of them had apoplexy in their medical histories. Initial data obtained in the similar patients before the treatment was used as control. L-Ala-L-Glu-L-Asp-L-Pro tetrapeptide was intramuscularly injected in a single dose of 3 μg once daily for 30 days.
# Results were assessed after the treatment in comparison with the data obtained before the treatment. Basing on the examination results, changes in the patients' state were defined according to the following gradation: improvement (substantial, average or minor), deterioration, no changes.
# At the pretreatment examination signs of intellectual-mnemic defect were found in all the patients: memory impairment, intellectual deterioration, aphasia, apraxia and agraphia disorders. In 9 patients signs of disorientation in time and place were found. The patients' emotional state was labile, manifested with periodical alternation of apathy and euphoria, complacency and anger aptness.
# [5] = after treatment, added to conventional treatment
# [6] = 1: in 2 hours after the training
# [7] = 2: in 24 hours after the training
# [8] = 3: in 2 hours after the repeated training
# [9] = 4: in 24 hours after the repeated training
# [10] = 5 μg/kg, post-stress introduction, measured in an hour
structure (smiles),measurement,setting,value
"C[C@H](N)C(=O)N[C@@H](CCC(=O)O)C(=O)N[C@@H](CC(=O)O)C(=O)N1CCC[C@H]1C(=O)O [L-Ala-L-Glu-L-Asp-L-Pro tetrapeptide, L-Alanyl-L-Glutamyl-L-Aspartyl-L-Proline] (H-AEDP-OH)",Number of mistakes (proof test),[1]; [5],6.3 ± 1.1
same,Reviewed symbols (proof test),[1]; [5],2519.6 ± 105.3
same,α-index (EEG),[1]; [5],47.9 ± 3.1
same,"cases with improvement of subjective indices (memory, mental agility, headaches, emotional evenness, will activity, recovery after a night repose)","[1]; before vs after treatment, 1 μg intramuscularly daily for 10 days",71%
same,Total period of stay in the dark chamber,[2]; [6],47.8 ± 5.7 s
same,Trained animals (%),[2]; [6],13%
same,Total period of stay in the dark chamber,[2]; [7],41.6 ± 5.8 s
same,Trained animals (%),[2]; [7],31%
same,Total period of stay in the dark chamber,[2]; [8],13.7 ± 5.7 s
same,Trained animals (%),[2]; [8],77%
same,Total period of stay in the dark chamber,[2]; [9],7.6 ± 5.7 s
same,Trained animals (%),[2]; [9],86%
same,"side effects, subacute toxicity",white unbred rats,absence of any side effects
same,content of 5-oxyindoleacetic acid in the brain,rats; [10],diminished
same,content of serotonin in the brain,rats; [10],increased
same,levels of serotonin and its metabolite,rats; intact animals,did not induce any changes
same,Degree of protein peroxidation,cerebral cortex of rats,4.81 ± 0.09 μmole/mg of protein
same,Diene conjugates,cerebral cortex of rats,29.67 ± 1.93 nmole/g of the tissue
same,Schiff bases,cerebral cortex of rats,245.2 ± 23.9 IU/g of the tissue
same,Total period of stay in the dark chamber in 24 hours,[3],38.1 ± 4.4
same,Trained animals (%),[3]; i.p. 60 min. before the training,25%
same,patients showing reverse development of the pathologic symptoms,[4],74.8%
